From patent US10798941B2, “Microbiocidal oxadiazole derivatives” (SYNGENTA PARTICIPATIONS AG, priority 2016, dated 2020)

Assays:
[1] = system: Phakopsora pachyrhizi; assay: Phakopsora pachyrhizi / soybean / leaf disc preventative (Asian soybean rust); format: in vivo; conditions: foliar, 288 h, 200 ppm in the applied formulation, soybean leaf disks, inoculated one day after application, assessed 12 to 14 days after application, vs untreated, read-out: disease control
How it was run: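 Read-out is percent disease control relative to untreated check discs, assessed once untreated discs show adequate disease, 12 to 14 days after application. Compounds, tested at 200 ppm in the applied formulation, are sprayed onto soybean leaf discs one day before inoculation with a spore suspension.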

[2] = system: Glomerella Lagenarium (Colletotrichum Lagenarium); assay: Glomerella lagenarium (Colletotrichum lagenarium) liquid culture / cucumber / preventative (anthracnose); format: cell-based; conditions: Colletotrichum orbiculare; 20 ppm in the applied formulation; liquid culture in PDB, 24° C., inhibition of growth measured photometrically 3 to 4 days after application, vs untreated; read-out: disease control
How it was run: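 Conidia from cryogenic storage were mixed into potato dextrose broth. This was added to compound diluted from DMSO into 0.025% Tween20, tested at 20 ppm. Plates were incubated in the dark at 24 °C and 96% relative humidity, and growth was read photometrically after 2–7 days as % activity versus untreated check.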

[3] = system: Puccinia recondita f. Sp. Tritici; assay: Puccinia recondita f. sp. tritici / wheat / leaf disc preventative (brown rust); format: in vivo; conditions: foliar, 168 h, 200 ppm in the applied formulation, wheat leaf segments cv. Kanzler, preventative, inoculated 1 day after application, assessed 7 to 9 days after application, vs untreated, read-out: disease control
How it was run: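 Preventative leaf-segment test: spray application of diluted formulated compound on wheat cv. Kanzler, spore inoculation after 1 day. Percent control relative to untreated segments rated 7 to 9 days post-application, with incubation at 19° C, 75% relative humidity, 12 h photoperiod.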

[4] = system: Puccinia recondita f. Sp. Tritici; assay: Puccinia recondita f. sp. tritici / wheat / leaf disc curative (brown rust); format: in vivo; conditions: foliar, 144 h, 200 ppm in the applied formulation, wheat leaf segments cv. Kanzler, applied 1 day after inoculation, assessed 6 to 8 days after application, vs untreated, read-out: disease control
How it was run: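 Segments of wheat (cultivar Kanzler) sit on agar and are spore-inoculated first; after one day in darkness at 19° C and 75% RH the diluted formulated compound is sprayed on. A 12 h photoperiod follows at the same temperature and humidity before disease is scored against untreated controls.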

[5] = system: Uromyces viciae-Fabae; assay: Uromyces viciae-fabae / field bean / leaf disc preventative (faba-bean rust); format: in vivo; conditions: foliar, 288 h, 100 ppm in the applied formulation, field bean leaf discs, inoculated two hours after application, assessed 12 days after application, vs untreated, read-out: disease control
Description: Leaf disks or leaf segments of various plant species are cut from plants grown in a greenhouse. The cut leaf disks or segments are placed in multiwell plates (24-well format) onto water agar. The leaf disks are sprayed with a test solution before (preventative) or after (curative) inoculation. Compounds to be tested are prepared as DMSO solutions (max. 10 mg/ml) which are diluted to the appropriate concentration with 0.025% Tween20 just before spraying. The inoculated leaf disks or segments are incubated under defined conditions (temperature, relative humidity, light, etc.) according to the respective test system. A single evaluation of disease level is carried out 3 to 14 days after inoculation, depending on the pathosystem. Percent disease control relative to the untreated check leaf disks or segments is then calculated.
Field bean leaf discs are placed on water agar in multiwell plates (96-well format) and 10 μl of the formulated test compound diluted in acetone and a spreader pipetted onto the leaf disc. Two hours after application leaf discs are inoculated by spraying a spore suspension on the lower leaf surface. The leaf discs are incubated in a climate cabinet at 22° C. with 18 hour day and 70% relative humidity. The activity of a compound is assessed as percent disease control compared to untreated when an appropriate level of disease damage appears in untreated check leaf disks (12 days after application).
The following compounds at 100 ppm in the applied formulation give at least 80% disease control in this test when compared to untreated control leaf discs under the same conditions, which show extensive disease development.

FC(F)(F)c1nc(-c2ccc(Cn3nncc3-c3ccccc3)cc2)no1 [Compound 1.3, 3-[4-[(5-phenyltriazol-1-yl)methyl]phenyl]-5-(trifluoromethyl)-1,2,4-oxadiazole]
pest or weed control at 200 ppm [1]: ≥ 80% | inhibition of growth at 20 ppm [2]: ≥ 80% | pest or weed control at 200 ppm [3]: ≥ 80% | pest or weed control at 200 ppm [4]: ≥ 80% | pest or weed control at 100 ppm [5]: ≥ 80%

FC(F)(F)c1nc(-c2ccc(Cn3cc(-c4ccccc4)nn3)cc2)no1 [Compound 1.4, 3-[4-[(4-phenyltriazol-1-yl)methyl]phenyl]-5-(trifluoromethyl)-1,2,4-oxadiazole]
pest or weed control at 200 ppm [1]: ≥ 80% | inhibition of growth at 20 ppm [2]: ≥ 80% | pest or weed control at 200 ppm [3]: ≥ 80% | pest or weed control at 100 ppm [5]: ≥ 80% | melting point: 161.5 to 164.4 °C

CC(=O)OCc1cn(Cc2ccc(-c3noc(C(F)(F)F)n3)cc2)nn1 [Compound 1.7, [1-[[4-[5-(trifluoromethyl)-1,2,4-oxadiazol-3-yl]phenyl]methyl]triazol-4-yl]methyl acetate]
pest or weed control at 200 ppm [1]: ≥ 80% | inhibition of growth at 20 ppm [2]: ≥ 80% | pest or weed control at 200 ppm [3]: ≥ 80% | pest or weed control at 100 ppm [5]: ≥ 80% | melting point: 157.4 to 160.4 °C

FC(F)(F)c1nc(-c2ccc(Cn3cc(-c4ccsc4)nn3)cc2)no1 [Compound 1.8, 3-[4-[[4-(3-thienyl)triazol-1-yl]methyl]phenyl]-5-(trifluoromethyl)-1,2,4-oxadiazole]
inhibition of growth at 20 ppm [2]: ≥ 80% | pest or weed control at 200 ppm [3]: ≥ 80% | pest or weed control at 200 ppm [4]: ≥ 80% | pest or weed control at 100 ppm [5]: ≥ 80% | melting point: 160.2 to 163.9 °C

CC1(C)CN=C(Cc2ccc(-c3noc(C(F)(F)F)n3)cc2)O1 [Compound 1.10, 3-[4-[(5,5-dimethyl-4H-oxazol-2-yl)methyl]phenyl]-5-(trifluoromethyl)-1,2,4-oxadiazole]
pest or weed control at 200 ppm [1]: ≥ 80% | inhibition of growth at 20 ppm [2]: ≥ 80% | pest or weed control at 200 ppm [3]: ≥ 80% | pest or weed control at 200 ppm [4]: ≥ 80% | pest or weed control at 100 ppm [5]: ≥ 80%

CCOCc1cn(Cc2ccc(-c3noc(C(F)(F)F)n3)cc2)nn1 [Compound 1.11, 3-[4-[[4-(ethoxymethyl)triazol-1-yl]methyl]phenyl]-5-(trifluoromethyl)-1,2,4-oxadiazole]
pest or weed control at 200 ppm [1]: ≥ 80% | pest or weed control at 200 ppm [3]: ≥ 80% | pest or weed control at 200 ppm [4]: ≥ 80% | pest or weed control at 100 ppm [5]: ≥ 80% | melting point: 115.7 to 117.6 °C

COc1ccc(-c2cn(Cc3ccc(-c4noc(C(F)(F)F)n4)cc3)nn2)cc1 [Compound 1.12, 3-[4-[[4-(4-methoxyphenyl)triazol-1-yl]methyl]phenyl]-5-(trifluoromethyl)-1,2,4-oxadiazole]
pest or weed control at 200 ppm [3]: ≥ 80% | pest or weed control at 100 ppm [5]: ≥ 80% | melting point: 187.7 to 196.2 °C

Fc1ccc(-c2cn(Cc3ccc(-c4noc(C(F)(F)F)n4)cc3)nn2)cc1 [Compound 1.13, 3-[4-[[4-(4-fluorophenyl)triazol-1-yl]methyl]phenyl]-5-(trifluoromethyl)-1,2,4-oxadiazole]
pest or weed control at 100 ppm [5]: ≥ 80% | melting point: 185.3 to 189 °C

Cc1ccc(-c2cn(Cc3ccc(-c4noc(C(F)(F)F)n4)cc3)nn2)cc1 [Compound 1.14, 3-[4-[[4-(p-tolyl)triazol-1-yl]methyl]phenyl]-5-(trifluoromethyl)-1,2,4-oxadiazole]
pest or weed control at 100 ppm [5]: ≥ 80% | melting point: 200.6 to 204.2 °C

FC(F)c1cc(C(F)F)n(Cc2ccc(-c3noc(C(F)(F)F)n3)cc2)n1 [Compound 1.17, 3-[4-[[3,5-bis(difluoromethyl)pyrazol-1-yl]methyl]phenyl]-5-(trifluoromethyl)-1,2,4-oxadiazole]
pest or weed control at 200 ppm [1]: ≥ 80% | inhibition of growth at 20 ppm [2]: ≥ 80% | pest or weed control at 100 ppm [5]: ≥ 80% | melting point: 53 to 58 °C

Cc1cc(C(F)(F)F)nn1Cc1ccc(-c2noc(C(F)(F)F)n2)cc1 [Compound 1.20, 3-[4-[[5-methyl-3-(trifluoromethyl)pyrazol-1-yl]methyl]phenyl]-5-(trifluoromethyl)-1,2,4-oxadiazole]
pest or weed control at 200 ppm [1]: ≥ 80% | inhibition of growth at 20 ppm [2]: ≥ 80% | pest or weed control at 100 ppm [5]: ≥ 80%

CCNC(=O)c1cn(Cc2ccc(-c3noc(C(F)(F)F)n3)cc2)nn1 [Compound 1.274, N-ethyl-1-[[4-(5-(trifluoromethyl)-1,2,4-oxadiazol-3-yl]phenyl]methyl]triazole-4-carboxamide]
pest or weed control at 200 ppm [1]: ≥ 80% | inhibition of growth at 20 ppm [2]: ≥ 80% | pest or weed control at 200 ppm [3]: ≥ 80% | pest or weed control at 200 ppm [4]: ≥ 80% | melting point: 193 to 195 °C

CON(C)C(=O)c1cn(Cc2ccc(-c3noc(C(F)(F)F)n3)cc2)nn1 [Compound 1.275, N-methoxy-N-methyl-1-[[4-[5-(trifluoromethyl)-1,2,4-oxadiazol-3-yl]phenyl]methyl]triazole-4-carboxamide]
pest or weed control at 200 ppm [1]: ≥ 80% | inhibition of growth at 20 ppm [2]: ≥ 80% | pest or weed control at 200 ppm [3]: ≥ 80% | pest or weed control at 200 ppm [4]: ≥ 80% | melting point: 135 to 137 °C

CONC(=O)c1cn(Cc2ccc(-c3noc(C(F)(F)F)n3)cc2)nn1 [Compound 1.277, N-methoxy-1-[[4-[5-(trifluoromethyl)-1,2,4-oxadiazol-3-yl]phenyl]methyl]triazole-4-carboxamide]
pest or weed control at 200 ppm [1]: ≥ 80% | inhibition of growth at 20 ppm [2]: ≥ 80% | pest or weed control at 200 ppm [3]: ≥ 80% | pest or weed control at 200 ppm [4]: ≥ 80% | melting point: 198 to 200 °C

COC(=O)c1cnnn1Cc1ccc(-c2noc(C(F)(F)F)n2)cc1 [Compound 1.279, methyl 3-[[4-[5-(trifluoromethyl)-1,2,4-oxadiazol-3-yl]phenyl]methyl]triazole-4-carboxylate]
pest or weed control at 200 ppm [1]: ≥ 80% | inhibition of growth at 20 ppm [2]: ≥ 80% | pest or weed control at 200 ppm [3]: ≥ 80% | pest or weed control at 200 ppm [4]: ≥ 80% | melting point: 103 to 107 °C

CN(C)C(=O)c1cn(Cc2ccc(-c3noc(C(F)(F)F)n3)cc2)nn1 [Compound 1.280, N,N-dimethyl-1-[[4-[5-(trifluoromethyl)-1,2,4-oxadiazol-3-yl]phenyl]methyl]triazole-4-carboxamide]
pest or weed control at 200 ppm [1]: ≥ 80% | inhibition of growth at 20 ppm [2]: ≥ 80% | pest or weed control at 200 ppm [3]: ≥ 80% | pest or weed control at 200 ppm [4]: ≥ 80% | melting point: 168 to 170 °C

O=C(Nc1ccncc1)c1cn(Cc2ccc(-c3noc(C(F)(F)F)n3)cc2)nn1 [Compound 1.283, N-(4-pyridyl)-1-[[4-[5-(trifluoromethyl)-1,2,4-oxadiazol-3-yl]phenyl]methyl]triazole-4-carboxamide]
pest or weed control at 200 ppm [1]: ≥ 80% | inhibition of growth at 20 ppm [2]: ≥ 80% | pest or weed control at 200 ppm [3]: ≥ 80% | pest or weed control at 200 ppm [4]: ≥ 80% | melting point: 204 to 206 °C

C#CCON=Cc1cnn(Cc2ccc(-c3noc(C(F)(F)F)n3)cc2)c1 [Compound 1.290, N-prop-2-ynoxy-1-[1-[[4-[5-(trifluoromethyl)-1,2,4-oxadiazol-3-yl]phenyl]methyl]pyrazol-4-yl]methanimine]
pest or weed control at 200 ppm [1]: ≥ 80% | inhibition of growth at 20 ppm [2]: ≥ 80% | pest or weed control at 200 ppm [3]: ≥ 80% | pest or weed control at 200 ppm [4]: ≥ 80% | melting point: 57 to 63 °C

CS(=O)(=O)N1CCN(Cc2ccc(-c3noc(C(F)(F)F)n3)cc2)CC1 [Compound 1.305, 3-[4-[(4-methylsulfonyl-piperazin-1-yl)methyl]phenyl]-5-(trifluoromethyl)-1,2,4-oxadiazole]
pest or weed control at 200 ppm [1]: ≥ 80% | inhibition of growth at 20 ppm [2]: ≥ 80% | pest or weed control at 200 ppm [3]: ≥ 80% | pest or weed control at 200 ppm [4]: ≥ 80% | melting point: 111.1 to 114.9 °C
